Source: patent US9512114B2, “Substituted aminopyrimidine compounds and methods of use” (Calitor Sciences, LLC, priority 2013, dated 2016)

Experiments:
[1] = Pharmacokinetic profiles in dogs; type: in vivo; details: Dog; for clearance / AUC(0-t) / half-life / Vd: iv dosing 1 mg/kg; for F: oral vs iv (iv 1 mg/kg; p.o. generally 10 mg/kg); for AUC(0-t) / half-life / Vd: plasma; for Vd: read-out: Vss
Description: (§1) The compounds disclosed herein are assessed in pharmacokinetic studies in mice, rats, dogs or monkeys. The compounds are administered as a water solution, 2% HPMC+1% TWEEN®80 in water solution, 5% DMSO+5% solutol in saline, 4% MC suspension or capsule. For the intravenous administration, the animals are generally given at 1 or 2 mg/kg dose. For the oral (p.o.) dosing, mice and rats are generally given 5 or 10 mg/kg dose, and dogs and monkeys are generally given 10 mg/kg dose. The blood samples (0.3 mL) are drawn at 0.25, 0.5, 1.0, 2.0, 3.0, 4.0, 6.0, 8.0, 12 and 24 h time points or 0.083, 0.25, 0.5, 1.0, 2.0, 4.0, 6.0, 8.0 and 24 h time points and centrifuged at 3,000 or 4000 rpm for 2 to 10 min. The plasma solutions are collected, stored at −20° C. or −70° C. until analyzed by LC/MS/MS as described above.

[2] = target: PI3K (p110δ/p85α) (h) (Homo sapiens (Human), UniProt O00329); assay: PI3K (p110δ/p85α) (h) non-radioactive HTRF kinase assay; type: biochemical; details: performed at Millipore UK Ltd
How it was run: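 Human p110δ/p85α incubated with 10 μM phosphatidylinositol-4,5-bisphosphate, reaction started with MgATP (concentration as required), 30 min at room temperature. Stopped with EDTA plus biotinylated PIP3; detection by HTRF with Eu-anti-GST antibody, GST-GRP1 PH domain and streptavidin-APC, signal = 10000×(Em665/Em620). Yields IC50 and/or Ki.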

[3] = Pharmacokinetic profiles in monkeys; type: in vivo; details: Monkey; for Cl/F / AUC(0-t) / half-life / Vd: iv dosing 1 mg/kg; for F: oral vs iv (iv 1 mg/kg; p.o. generally 10 mg/kg); for AUC(0-t) / half-life / Vd: plasma; for Vd: read-out: Vss
Description: as §1

[4] = target: PI3K (p110α/p85α) (h) (Homo sapiens (Human), UniProt P42336); assay: PI3K (p110α/p85α) (h) non-radioactive HTRF kinase assay; type: biochemical; details: performed at Millipore UK Ltd
Description: The above assay procedure can be used to determine the IC50 for inhibition and/or the inhibition constant, Ki.
PI3K (p110α/p85α) (h) [Non-Radioactive Assay]
PI3K (p110α/p85α) (h) is incubated in assay buffer containing 10 μM phosphatidylinositol 4,5-bisphosphate and MgATP (concentration as required). The reaction is initiated by the addition of the ATP solution. After incubation for 30 minutes at room temperature, the reaction is stopped by the addition of stop solution containing EDTA and biotinylated phosphatidylinositol-3,4,5-trisphosphate. Finally, detection buffer is added, which contains europium-labelled anti-GST monoclonal antibody, GST-tagged GRP1 PH domain and streptavidin allophycocyanin. The plate is then read in timeresolved fluorescence mode and the homogenous time-resolved fluorescence (HTRF) signal is determined according to the formula HTRF=10000×(Em665 nm/Em620 nm).
The kinase assays described herein were performed at Millipore UK Ltd, Dundee Technology Park, Dundee DD2 1SW, UK.

Chain of PI3K (p110δ/p85α) (h) (O00329 whole entry, the tested form may be a part): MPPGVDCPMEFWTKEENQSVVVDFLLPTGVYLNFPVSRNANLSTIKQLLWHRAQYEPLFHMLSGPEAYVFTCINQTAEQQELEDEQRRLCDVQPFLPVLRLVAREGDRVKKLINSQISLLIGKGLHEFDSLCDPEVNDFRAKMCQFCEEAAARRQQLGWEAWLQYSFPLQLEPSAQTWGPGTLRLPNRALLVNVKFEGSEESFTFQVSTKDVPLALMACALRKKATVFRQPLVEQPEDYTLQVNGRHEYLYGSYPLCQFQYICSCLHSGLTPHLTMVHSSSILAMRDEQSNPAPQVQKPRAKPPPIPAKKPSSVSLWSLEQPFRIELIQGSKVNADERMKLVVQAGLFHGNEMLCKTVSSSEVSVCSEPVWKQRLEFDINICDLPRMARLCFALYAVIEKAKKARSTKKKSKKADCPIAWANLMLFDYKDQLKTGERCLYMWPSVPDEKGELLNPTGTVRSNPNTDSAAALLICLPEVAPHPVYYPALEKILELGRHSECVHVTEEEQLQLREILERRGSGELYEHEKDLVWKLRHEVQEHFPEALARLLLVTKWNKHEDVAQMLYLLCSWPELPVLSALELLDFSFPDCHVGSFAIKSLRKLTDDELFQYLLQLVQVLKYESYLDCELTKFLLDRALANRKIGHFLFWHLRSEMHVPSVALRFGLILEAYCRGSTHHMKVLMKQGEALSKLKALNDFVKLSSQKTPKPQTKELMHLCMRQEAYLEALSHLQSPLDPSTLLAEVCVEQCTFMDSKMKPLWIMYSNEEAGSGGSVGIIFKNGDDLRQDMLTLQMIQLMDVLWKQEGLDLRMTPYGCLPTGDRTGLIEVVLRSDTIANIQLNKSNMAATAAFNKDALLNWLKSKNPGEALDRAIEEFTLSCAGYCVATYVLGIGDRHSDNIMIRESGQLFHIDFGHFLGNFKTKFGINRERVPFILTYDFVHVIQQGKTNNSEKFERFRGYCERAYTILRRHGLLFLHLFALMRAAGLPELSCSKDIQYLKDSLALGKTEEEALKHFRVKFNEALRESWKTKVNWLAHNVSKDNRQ
Chain of PI3K (p110δ/p85α) (h) (P27986 whole entry partner, the tested form may be a part): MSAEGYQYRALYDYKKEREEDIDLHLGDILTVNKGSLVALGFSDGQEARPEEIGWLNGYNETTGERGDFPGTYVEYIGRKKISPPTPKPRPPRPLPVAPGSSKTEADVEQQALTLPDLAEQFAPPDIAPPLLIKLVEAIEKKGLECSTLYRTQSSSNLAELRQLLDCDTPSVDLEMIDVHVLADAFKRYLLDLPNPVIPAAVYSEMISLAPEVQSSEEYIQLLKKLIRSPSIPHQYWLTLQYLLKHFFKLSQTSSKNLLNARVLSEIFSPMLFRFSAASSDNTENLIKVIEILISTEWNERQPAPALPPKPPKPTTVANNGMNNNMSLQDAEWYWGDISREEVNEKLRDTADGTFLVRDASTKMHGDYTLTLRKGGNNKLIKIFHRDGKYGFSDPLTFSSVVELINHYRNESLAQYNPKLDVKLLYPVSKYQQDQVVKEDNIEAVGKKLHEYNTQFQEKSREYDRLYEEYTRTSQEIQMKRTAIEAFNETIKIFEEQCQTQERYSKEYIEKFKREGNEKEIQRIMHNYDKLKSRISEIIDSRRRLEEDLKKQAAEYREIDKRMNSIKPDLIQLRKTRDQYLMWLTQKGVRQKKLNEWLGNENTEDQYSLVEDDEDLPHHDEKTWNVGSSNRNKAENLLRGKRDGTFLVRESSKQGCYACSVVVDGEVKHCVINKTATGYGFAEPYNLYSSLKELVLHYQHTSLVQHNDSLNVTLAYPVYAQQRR
Chain of PI3K (p110α/p85α) (h) (P42336 whole entry): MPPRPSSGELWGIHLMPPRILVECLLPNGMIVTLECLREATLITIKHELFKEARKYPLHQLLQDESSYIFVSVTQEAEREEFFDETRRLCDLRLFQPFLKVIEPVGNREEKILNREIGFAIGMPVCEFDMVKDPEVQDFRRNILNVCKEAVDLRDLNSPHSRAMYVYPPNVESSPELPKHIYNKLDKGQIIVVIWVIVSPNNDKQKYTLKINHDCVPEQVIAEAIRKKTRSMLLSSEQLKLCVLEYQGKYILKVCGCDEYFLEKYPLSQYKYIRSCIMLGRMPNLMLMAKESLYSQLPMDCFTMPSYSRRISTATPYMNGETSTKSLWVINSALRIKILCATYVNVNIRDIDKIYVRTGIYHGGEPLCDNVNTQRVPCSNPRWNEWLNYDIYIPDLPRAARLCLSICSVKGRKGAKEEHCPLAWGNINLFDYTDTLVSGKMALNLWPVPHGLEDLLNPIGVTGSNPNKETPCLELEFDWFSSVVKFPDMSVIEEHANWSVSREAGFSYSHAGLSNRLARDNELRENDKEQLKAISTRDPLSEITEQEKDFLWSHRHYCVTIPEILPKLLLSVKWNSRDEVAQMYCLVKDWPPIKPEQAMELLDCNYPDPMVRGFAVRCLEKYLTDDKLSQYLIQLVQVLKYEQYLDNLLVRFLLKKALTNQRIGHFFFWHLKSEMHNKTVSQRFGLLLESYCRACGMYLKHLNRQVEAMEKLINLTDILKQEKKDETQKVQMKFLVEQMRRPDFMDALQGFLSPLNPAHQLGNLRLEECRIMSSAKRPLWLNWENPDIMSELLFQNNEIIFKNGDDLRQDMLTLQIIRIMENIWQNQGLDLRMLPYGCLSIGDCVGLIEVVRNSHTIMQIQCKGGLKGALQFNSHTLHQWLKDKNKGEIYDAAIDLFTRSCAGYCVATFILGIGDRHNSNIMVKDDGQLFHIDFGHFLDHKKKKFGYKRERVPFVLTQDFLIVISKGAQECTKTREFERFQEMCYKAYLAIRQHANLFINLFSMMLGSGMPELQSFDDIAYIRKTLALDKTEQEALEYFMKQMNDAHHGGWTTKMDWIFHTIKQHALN
Chain of PI3K (p110α/p85α) (h) (P27986 whole entry partner): as the sequence (P27986 whole entry partner, the tested form may be a part) above

Compound	clearance [1]	F [1]	AUC(0-t) [1]	half-life [1]	Vd [1]	IC50 [2]	Cl/F [3]	F [3]	AUC(0-t) [3]	half-life [3]	Vd [3]	IC50 [4]
Cc1noc(-c2c(N)ncnc2N[C@@H](C)c2cc3cccc(Cl)c3c(=O)n2-c2ccccc2)n1 [Ex. 8, (S)-3-(1-((6-amino-5-(3-methyl-1,2,4-oxadiazol-5-yl)pyrimidin-4-yl)amino)ethyl)-8-chloro-2-phenylisoquinolin-1(2H)-one]	12.2 mL/min/kg	52.85%	1350 ng·h/mL	1.7 h	1.43 L/kg	1 nM	24.3 mL/min/kg	13.1%	711 ng·h/mL	0.65 h	1.2 L/kg	276 nM
Cc1nnc(-c2c(N)ncnc2N[C@@H](C)c2cc3cccc(Cl)c3c(=O)n2C2CC2)o1 [Ex. 4, (S)-3-(1-((6-amino-5-(5-methyl-1,3,4-oxadiazol-2-yl)pyrimidin-4-yl)amino)ethyl)-8-chloro-2-cyclopropylisoquinolin-1(2H)-one]	–	–	–	–	–	11 nM	–	–	–	–	–	1470 nM

Next, values leading:

clearance [1]	F [1]	AUC(0-t) [1]	half-life [1]	Vd [1]	IC50 [2]	Cl/F [3]	F [3]	AUC(0-t) [3]	half-life [3]	Vd [3]	IC50 [4]	Compound
–	–	–	–	–	4 nM	–	–	–	–	–	132 nM	Cc1noc(-c2c(N)ncnc2N[C@@H](C)c2cc3cccc(-c4cnn(C)c4)c3c(=O)n2C2CC2)n1 [Ex. 26, (S)-3-(1-((6-amino-5-(3-methyl-1,2,4-oxadiazol-5-yl)pyrimidin-4-yl)amino)ethyl)-2-cyclopropyl-8-(1-methyl-1H-pyrazol-4-yl)isoquinolin-1 (2H)-one]
–	–	–	–	–	13 nM	–	–	–	–	–	882 nM	Cc1nnc(-c2c(N)ncnc2N[C@@H](C)c2cc3cccc(-c4cnn(C)c4)c3c(=O)n2C2CC2)o1 [Ex. 25, (S)-3-(1-((6-amino-5-(5-methyl-1,3,4-oxadiazol-2-yl)pyrimidin-4-yl)amino)ethyl)-2-cyclopropyl-8-(1-methyl-1H-pyrazol-4-yl)isoquinolin-1 (2H)-one]
23.7 mL/min/kg	72.99%	695 ng·h/mL	1.25 h	2.04 L/kg	4 nM	14.8 mL/min/kg	179.7%	1120 ng·h/mL	1.23 h	1.17 L/kg	2680 nM	Cc1nnc(-c2c(N)ncnc2N[C@@H](C)c2cc3cccc(Cl)c3c(=O)n2-c2ccccc2)o1 [Ex. 9, (S)-3-(1-((6-amino-5-(5-methyl-1,3,4-oxadiazol-2-yl)pyrimidin-4-yl)amino)ethyl)-8-chloro-2-phenylisoquinolin-1(2H)-one]
